Laboratory results as given in patent US6552080B1, “Fungicidal compounds having a fluorovinyl-or fluoropropenyl-oxyphenyloxime moiety and process for the preparation thereof” (Korea Research Institute of Chemical Technology, priority 1999, dated 2003).
Like-named read-outs stand apart in the source and are kept apart here.

Experiments:
[1] = system: Pyricularia oryzae Carvara KA301; format: in vivo; conditions: for RCV (Fungicidal Activities, C.V.): Rice Blast
Botrytis cinerae = assay: Fungicidal activity against Cucumber Gray Mold Rot (CGM) disease; format: in vivo; conditions: for CGM (Fungicidal Activities, C.V.): Cucumber Gray Mold Rot, concentration 50 ppm; for Fungicidal Activities CGM (C.V.): 50 ppm
Phytophthora infestans = format: in vivo; conditions: for TLB (Fungicidal Activities, C.V.): Tomato Late Blight
Puccinia recondita = assay: Fungicidal activity against Wheat Leaf Rust (WLR) disease; format: in vivo; conditions: for WLR (Fungicidal Activities, C.V.): Wheat Leaf Rust
Erysiphae graminis = assay: Fungicidal activity against Barley Powdery Mildew (BPM) disease; format: in vivo; conditions: for BPM (Fungicidal Activities, C.V.): Barley Powdery Mildew
Rhizoctonia solani AG-1 = assay: Fungicidal activity against Rice Sheath Blight (RSB) disease; conditions: for RSB (Fungicidal Activities, C.V.): Rice Sheath Blight
Experimental: To examine fungicidal activity of the compounds of the present invention, each of the compounds listed in Table 3 and 4 was dissolved in 10% acetone to a concentration of 250 ppm, and Tween-20 was added thereto to a concentration of 250 or 500 ppm. 50 ml of the resulting solution was sprayed on leaves of a host plant. The plant was kept at room temperature for 24 hours to let the solvent evaporate, and then, a pathogenic fungus was inoculated thereonto. The plant was held in a humidity chamber for 24 hours, transferred to an plant growth room kept at 20 to 27° C. and a relative humidity of 60 to 80% and kept to induce disease. […] This procedure was repeated twice for each test. 10% Acetone solution containing 250 ppm of Tween-20 was used as a control.
The fungicidal activity of the compound of the present invention is repressed by a control value (C.V.) calculated as; [formula]
Rhizoctonia solani AG-1 was cultured on a PDA medium (potato 200 g, dextrose 20 g, agar 20 g and distilled water 1 ? for 3 days and the agar disc(diameter 0.6 cm) was inoculated and cultured on sterilized wheat bran medium in a 1 L bottle at 26 to 28° C. for 7 days. A mycelial mass was ground using a homogenizer, inoculated uniformly on soil of a pot wherein a Nakdong rice plant having 2 or 3 leaves and an height of 5 cm grew, and kept in humidity polyvinyl chamber for 5 days to induce RSB. L.A. on a leaf sheath was measured to calculate an C.V.

| Structure (SMILES) | RCV (Fungicidal Activities, C.V.) ([1]; concentration 2 ppm) | RCV (Fungicidal Activities, C.V.) ([1]; concentration 50 ppm) | CGM (Fungicidal Activities, C.V.) (Botrytis cinerae) | TLB (Fungicidal Activities, C.V.) (Phytophthora infestans; concentration 50 ppm) | WLR (Fungicidal Activities, C.V.) (Puccinia recondita; concentration 2 ppm) | WLR (Fungicidal Activities, C.V.) (Puccinia recondita; concentration 50 ppm) | BPM (Fungicidal Activities, C.V.) (Erysiphae graminis; concentration 2 ppm) | BPM (Fungicidal Activities, C.V.) (Erysiphae graminis; concentration 50 ppm) | RSB (Fungicidal Activities, C.V.) (Rhizoctonia solani AG-1; concentration 2 ppm) | RSB (Fungicidal Activities, C.V.) (Rhizoctonia solani AG-1; concentration 50 ppm) | WLR (Fungicidal Activities, C.V.) (Puccinia recondita; concentration 10 ppm) | BPM (Fungicidal Activities, C.V.) (Erysiphae graminis; concentration 10 ppm) | also measured |
| --- | --- | --- | --- | --- | --- | --- | --- | --- | --- | --- | --- | --- | --- |
| CON=C(C(=O)OC)c1ccccc1CON=C(C)c1cccc(OC(F)=Cc2ccc(F)cc2)c1 [Compound 74] | 100% | 100% | 72% | 56% | 99% | 100% | 100% | 100% | 25% | 100% | – | – | TLB (Fungicidal Activities, C.V.) (Phytophthora infestans; concentration 2 ppm): 12% |
| COC=C(C(=O)OC)c1ccccc1CON=C(C)c1cccc(OC(F)=Cc2ccc(Cl)cc2)c1 [Compound 54] | 97% | 100% | 51% | 84% | 97% | 100% | 99% | 100% | 50% | 90% | 100% | 100% | RCV (Fungicidal Activities, C.V.) ([1]; concentration 10 ppm): 99%; RSB (Fungicidal Activities, C.V.) (Rhizoctonia solani AG-1; concentration 10 ppm): 80% |
| CCc1ccc(C(=C(F)Oc2cccc(C(C)=NOCc3ccccc3C(=COC)C(=O)OC)c2)C(F)(F)F)cc1 [Compound 155] | – | 80% | 52% | 6% | 83% | 100% | 95% | 100% | – | 60% | 99% | 99% | – |
| CNC(=O)C(=NOC)c1ccccc1CON=C(C)c1cccc(OC(F)=C(c2cccc(Cl)c2)C(F)(F)F)c1 [Compound 201] | – | – | – | – | – | – | – | – | – | – | – | – | Fungicidal Activities RCV (C.V.) ([1]; 2 ppm): 98%; Fungicidal Activities RCV (C.V.) ([1]; 50 ppm): 97%; Fungicidal Activities CGM (C.V.) (Botrytis cinerae): 85%; Fungicidal Activities TLB (C.V.) (Phytophthora infestans; 2 ppm): 25%; Fungicidal Activities TLB (C.V.) (Phytophthora infestans; 50 ppm): 50%; Fungicidal Activities WLR (C.V.) (Puccinia recondita; 2 ppm): 97%; Fungicidal Activities WLR (C.V.) (Puccinia recondita; 50 ppm): 100%; Fungicidal Activities BPM (C.V.) (Erysiphae graminis; 2 ppm): 100%; Fungicidal Activities BPM (C.V.) (Erysiphae graminis; 50 ppm): 100%; Fungicidal Activities RSB (C.V.) (Rhizoctonia solani AG-1; 2 ppm): 20%; Fungicidal Activities RSB (C.V.) (Rhizoctonia solani AG-1; 50 ppm): 85% |
| COC=C(C(=O)OC)c1ccccc1CON=C(C)c1cccc(OC(F)=C(c2ccc(OC)cc2)C(F)(F)F)c1 [Compound 158] | – | 41% | 44% | 0% | 91% | 100% | 98% | 100% | – | 70% | 98% | 100% | – |
| CON=C(C(=O)OC)c1ccccc1CON=Cc1cccc(OC(F)=Cc2ccc(C)cc2)c1 [Compound 25] | 66% | 98% | 9% | 99% | 95% | 100% | 93% | 100% | 15% | 40% | – | – | TLB (Fungicidal Activities, C.V.) (Phytophthora infestans; concentration 2 ppm): 75% |
| CON=C(C(=O)OC)c1ccccc1CON=C(C)c1cccc(OC(F)=C(c2cccc(F)c2)C(F)(F)F)c1 [Compound 182] | – | – | – | – | – | – | – | – | – | – | – | – | Fungicidal Activities RCV (C.V.) ([1]; 2 ppm): 95%; Fungicidal Activities RCV (C.V.) ([1]; 50 ppm): 95%; Fungicidal Activities CGM (C.V.) (Botrytis cinerae): 77%; Fungicidal Activities TLB (C.V.) (Phytophthora infestans; 2 ppm): 62%; Fungicidal Activities TLB (C.V.) (Phytophthora infestans; 50 ppm): 40%; Fungicidal Activities WLR (C.V.) (Puccinia recondita; 2 ppm): 95%; Fungicidal Activities WLR (C.V.) (Puccinia recondita; 50 ppm): 100%; Fungicidal Activities BPM (C.V.) (Erysiphae graminis; 2 ppm): 96%; Fungicidal Activities BPM (C.V.) (Erysiphae graminis; 50 ppm): 100%; Fungicidal Activities RSB (C.V.) (Rhizoctonia solani AG-1; 2 ppm): 30%; Fungicidal Activities RSB (C.V.) (Rhizoctonia solani AG-1; 50 ppm): 50% |
| CON=C(C(=O)OC)c1ccccc1CON=C(C)c1cccc(OC(F)=C(c2cccc(Cl)c2)C(F)(F)F)c1 [Compound 184] | – | – | – | – | – | – | – | – | – | – | – | – | Fungicidal Activities RCV (C.V.) ([1]; 2 ppm): 90%; Fungicidal Activities RCV (C.V.) ([1]; 50 ppm): 96%; Fungicidal Activities CGM (C.V.) (Botrytis cinerae): 0%; Fungicidal Activities TLB (C.V.) (Phytophthora infestans; 2 ppm): 0%; Fungicidal Activities TLB (C.V.) (Phytophthora infestans; 50 ppm): 50%; Fungicidal Activities WLR (C.V.) (Puccinia recondita; 2 ppm): 98%; Fungicidal Activities WLR (C.V.) (Puccinia recondita; 50 ppm): 99%; Fungicidal Activities BPM (C.V.) (Erysiphae graminis; 2 ppm): 99%; Fungicidal Activities BPM (C.V.) (Erysiphae graminis; 50 ppm): 100%; Fungicidal Activities RSB (C.V.) (Rhizoctonia solani AG-1; 2 ppm): 20%; Fungicidal Activities RSB (C.V.) (Rhizoctonia solani AG-1; 50 ppm): 85% |
| COC=C(C(=O)OC)c1ccccc1CON=C(C)c1cccc(OC(F)=C(c2cc(C)cc(C)c2)C(F)(F)F)c1 [Compound 154] | – | 16% | 58% | 12% | 73% | 98% | 68% | 100% | 25% | 90% | 96% | 98% | RSB (Fungicidal Activities, C.V.) (Rhizoctonia solani AG-1; concentration 10 ppm): 35% |
| CCCCc1ccc(C=C(F)Oc2cccc(C(C)=NOCc3ccccc3C(=NOC)C(=O)OC)c2)cc1 [Compound 70] | 99% | 100% | 50% | 0% | 93% | 97% | 83% | 100% | 20% | 85% | – | – | TLB (Fungicidal Activities, C.V.) (Phytophthora infestans; concentration 2 ppm): 12% |
| COC=C(C(=O)OC)c1ccccc1CON=Cc1cccc(OC(F)=C(c2ccc(OC)cc2)C(F)(F)F)c1 [Compound 111] | – | 0% | 17% | 0% | 80% | 98% | 95% | 100% | – | 0% | 95% | 100% | – |
| CCc1ccc(C=C(F)Oc2cccc(C(C)=NOCc3ccccc3C(=NOC)C(=O)NC)c2)cc1 [Compound 79] | 99% | 100% | 80% | 82% | 98% | 100% | 100% | 100% | 35% | 65% | – | – | TLB (Fungicidal Activities, C.V.) (Phytophthora infestans; concentration 2 ppm): 43% |
| COC=C(C(=O)OC)c1ccccc1CON=Cc1cccc(OC(F)=C(c2ccc(Br)cc2)C(F)(F)F)c1 [Compound 118] | – | 33% | 36% | 0% | 91% | 100% | 88% | 100% | – | 30% | 98% | 96% | – |
| CNC(=O)C(=NOC)c1ccccc1CON=Cc1cccc(OC(F)=Cc2ccc(C)c(C)c2)c1 [Compound 32] | 99% | 100% | 8% | 0% | 3% | 99% | 0% | 100% | – | 41% | – | – | – |
| COC=C(C(=O)OC)c1ccccc1CON=Cc1cccc(OC(F)=Cc2ccc(Cl)cc2)c1 [Compound 14] | 58% | 100% | 7% | 12% | 96% | 100% | 99% | 100% | – | 75% | 99% | 100% | RCV (Fungicidal Activities, C.V.) ([1]; concentration 10 ppm): 86% |
| CNC(=O)C(=NOC)c1ccccc1CON=C(C)c1cccc(OC(F)=C(c2ccc(OC)cc2)C(F)(F)F)c1 [Compound 198] | – | – | – | – | – | – | – | – | – | – | – | – | Fungicidal Activities RCV (C.V.) ([1]; 2 ppm): 95%; Fungicidal Activities RCV (C.V.) ([1]; 50 ppm): 100%; Fungicidal Activities CGM (C.V.) (Botrytis cinerae): 16%; Fungicidal Activities TLB (C.V.) (Phytophthora infestans; 50 ppm): 0%; Fungicidal Activities WLR (C.V.) (Puccinia recondita; 2 ppm): 53%; Fungicidal Activities WLR (C.V.) (Puccinia recondita; 50 ppm): 100%; Fungicidal Activities BPM (C.V.) (Erysiphae graminis; 2 ppm): 41%; Fungicidal Activities BPM (C.V.) (Erysiphae graminis; 50 ppm): 100%; Fungicidal Activities RSB (C.V.) (Rhizoctonia solani AG-1; 50 ppm): 58% |
| COC=C(C(=O)OC)c1ccccc1CON=Cc1cccc(OC(F)=C(c2cccc(Cl)c2)C(F)(F)F)c1 [Compound 116] | – | 0% | 0% | 14% | 53% | 96% | 33% | 100% | – | 15% | 96% | 96% | – |
